pEC50: −log10 of the molar value. Read-outs that look alike come from different tables or passages of the source. Where a SMILES comes first, the peptide text is derived from it. [ ]: non-standard residue; d: D form. The star is where a group is joined. Malonyl(2,2-Me2,histaminyl) = CC(C)(C(=O)NCCc1cnc[nH]1)C(=O)*; d(hArg) = N=C(N)NCCCC[C@@H](N)C(=O)O; Gly(NCH2CH2Ph) = O=C(O)CNCCc1ccccc1; Hyp = O=C(O)[C@@H]1C[C@@H](O)CN1; hArg = N=C(N)NCCCC[C@H](N)C(=O)O; NMeN = CN[C@@H](CC(N)=O)C(=O)O; Aoc(2) = CCCCCC[C@H](N)C(=O)O; Phg = N[C@H](C(=O)O)c1ccccc1; Nle = CCCC[C@H](N)C(=O)O

Assay [1] has as its target T1, human orexin type 2 receptor (hOX2R) (Homo sapiens, UniProt O43614).
T1 construct: expressed in transfected cells
T1 sequence (O43614 1-444): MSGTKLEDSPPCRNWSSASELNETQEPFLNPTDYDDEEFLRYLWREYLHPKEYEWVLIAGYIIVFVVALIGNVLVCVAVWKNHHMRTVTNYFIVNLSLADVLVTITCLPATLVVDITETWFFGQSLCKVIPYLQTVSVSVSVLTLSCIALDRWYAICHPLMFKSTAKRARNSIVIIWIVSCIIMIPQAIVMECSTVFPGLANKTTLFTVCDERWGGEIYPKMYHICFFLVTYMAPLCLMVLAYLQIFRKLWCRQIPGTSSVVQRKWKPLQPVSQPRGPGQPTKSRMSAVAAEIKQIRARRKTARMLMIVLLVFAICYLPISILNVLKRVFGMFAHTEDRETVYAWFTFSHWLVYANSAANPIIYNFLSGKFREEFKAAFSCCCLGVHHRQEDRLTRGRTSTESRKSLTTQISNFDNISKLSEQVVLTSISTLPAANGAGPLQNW
Nature of the assay: Measurement of orexin type 2 receptor agonist activity (CHO cells, FLIPR TETRA intracellular Ca2+). It is filed as cell-based. The source says: (§1) In some embodiments, the assay uses cells stably expressing either human orexin type 2 or human orexin type 1 receptor. In some embodiments, the cells are obtained by inserting the Orexin receptor cDNA into pcDNA3.1(+) plasmid vector, identifying clones by G418 drug resistance selection, and/or growing a single clone for OX2R-CHO and OX1R-CHO in bulk. In some embodiments, the assay is detected using Fluorescent Imaging Plate Reader TETRA (FLIPR TETRA: manufactured by Molecular Devices). In some embodiments, the agonist activity of the test peptide is calculated assuming that the fluorescence value of the well containing only the dilution buffer is 0% and the fluorescence value of the well containing 10 nM human orexin A (Tocris) buffer is 100%.
(§2) Stable cell line generation. Obtainment of cells stably expressing either human orexin type 2 or human orexin type 1 receptor: to obtain a stable cell line the Orexin receptor cDNA was inserted into pcDNA3.1(+) plasmid vector and clones identified by G418 drug resistance selection. […] A single clone for OX2R-CHO and OX1R-CHO were grown in bulk and frozen to generate a cell bank for routine screening.
(§3) Measurement of orexin type 2 receptor agonist activity. Chinese hamster ovary (CHO) cells expressing human orexin type 2 receptor (hOX2R) seeded in each well of 384 well black clear bottom plates (BD Flacon) at 10,000 cells per well and cultured for 24 h in an Ham's F12 (Gibco) medium containing 10% fetal calf serum (Sigma Aldrich) under the conditions of 37° C., 5% CO2. After removal of the medium, 50 μL of assay buffer 1 (0.1% bovine serum albumin (Sigma Aldrich), 20 mM HEPES (Molecular Dimensions), […] probenecid (Sigma Aldrich), 1× Calcium 5 dye (Molecular Devices) in Hank's balanced salt solution (Invitrogen)) was added, and the cells were incubated for 60 min under the conditions of 37° C., 5% CO2. A test peptide was dissolved in dimethyl sulfoxide (Sigma Aldrich) to 1 mM, and then diluted with assay buffer 2 (20 mM HEPES, Hank's balanced salt solution, 0.1% bovine serum albumin). For the reaction, a test peptide solution (10 μl) was added using Fluorescent Imaging Plate Reader TETRA (FLIPR TETRA: manufactured by Molecular Devices), a fluorescence value (excitation wavelength 488 nm, measurement wavelength 570 nm) of each well was measured every one second for 2 min, and the agonist activity was determined using the area of the fluorescence value as an indicator of intracellular Ca^2+ concentration. The agonist activity of the test peptide was calculated assuming that the fluorescence value of the well added with only the dilution buffer was 0% and the fluorescence value of the well added with 10 nM human orexin A (Tocris) buffer was 100%. As used herein, Emax indicates the value at 1 μM concentration when orexin A is converted to a full agonist (maximum value of agonist activity: 100%).

The target of assay [2] is T2, human orexin type 1 receptor (hOX1R) (Homo sapiens, UniProt O43613).
T2 construct: expressed in transfected cells
T2 sequence (O43613 1-425): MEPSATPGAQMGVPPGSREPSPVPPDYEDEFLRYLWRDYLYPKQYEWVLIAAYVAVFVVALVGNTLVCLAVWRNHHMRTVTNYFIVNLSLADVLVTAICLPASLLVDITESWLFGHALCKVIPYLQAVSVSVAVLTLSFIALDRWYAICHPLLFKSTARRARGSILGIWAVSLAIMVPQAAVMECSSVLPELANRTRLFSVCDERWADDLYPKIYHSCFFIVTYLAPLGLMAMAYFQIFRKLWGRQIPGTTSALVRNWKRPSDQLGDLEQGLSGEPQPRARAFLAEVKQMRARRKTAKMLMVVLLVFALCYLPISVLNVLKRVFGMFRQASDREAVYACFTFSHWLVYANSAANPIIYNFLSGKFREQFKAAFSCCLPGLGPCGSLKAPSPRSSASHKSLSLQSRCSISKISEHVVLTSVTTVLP
Nature of the assay: Measurement of orexin type 1 receptor agonist activity (CHO cells, FLIPR TETRA intracellular Ca2+). It is filed as cell-based.
Text: as §1, §2
as §3, with “type 1” for “type 2”, “receptor (hOX1R) were” for “receptor (hOX2R)”

The mark [3] stands for this setting: CHO cells expressing hOX2R, Ca2+ fluorescence, read-out: hOX2 pEC50 (converted).
Setting [4] is: CHO cells expressing hOX1R, Ca2+ fluorescence, read-out: hOX1 pEC50 (converted).

Consider `CCCC[C@H](NC(=O)[C@@H](NC(=O)[C@H](CC(C)C)NC(=O)[C@@H](NC(=O)CNC(=O)[C@@H](NC(=O)[C@H](C)NC(=O)[C@H](Cc1c[nH]cn1)NC(=O)[C@H](CC(N)=O)NC(=O)CNC(=O)[C@H](CO)NC(=O)[C@H](C)NC(=O)[C@H](Cc1c[nH]c2ccccc12)NC(=O)[C@@H](CC(C)C)NC(=O)[C@@H](N)CC(C)C)c1ccccc1)[C@@H](C)CC)[C@@H](C)O)C(N)=O` [compound 11] (H-L[dL]WASGNHA[Phg]GILT[Nle]-NH2), for which the results for the EC50 in assay [1] (setting [3]) and in assay [2] (setting [4]) were under 0.1 nM and over 10 nM, respectively.
For the compound `CCCCCC[C@H](NC(=O)[C@@H](NC(=O)[C@H](CC(C)C)NC(=O)[C@@H](NC(=O)CNC(=O)[C@@H](NC(=O)[C@H](C)NC(=O)[C@@H]1C[C@@H](O)CN1C(=O)[C@H](CC(N)=O)N(C)C(=O)CN(CCc1ccccc1)C(=O)[C@H](CCCNC(=N)N)NC(=O)[C@@H]1CCCN1C(=O)[C@@H](CCCCNC(=N)N)NC(=O)[C@@H](CCC(N)=O)NC(=O)C(C)(C)C(=O)NCCc1cnc[nH]1)c1ccccc1)[C@@H](C)CC)[C@@H](C)O)C(N)=O` [compound 7] ({Malonyl(2,2-Me2,histaminyl)}-[dQ][d(hArg)]PR[Gly(NCH2CH2Ph)][NMeN][Hyp]A[Phg]GILT[Aoc(2)]-NH2), the pEC50 (in general, the EC50 on a negative log10 scale, so that one unit is a factor of ten) was over 10.00 in assay [1] and under 8.00 in assay [2].
On to `CCCC[C@H](NC(=O)[C@@H](NC(=O)[C@H](CC(C)C)NC(=O)[C@@H](NC(=O)CNC(=O)[C@H](C)NC(=O)[C@H](C)NC(=O)[C@H](Cc1c[nH]cn1)NC(=O)[C@H](CC(N)=O)NC(=O)CNC(=O)[C@H](CO)NC(=O)[C@@H](C)NC(=O)[C@@H](Cc1ccccc1)NC(=O)[C@H](CC(C)C)NC(=O)[C@@H](N)CC(C)C)[C@@H](C)CC)[C@@H](C)O)C(N)=O` [compound 12] (H-LL[dF][dA]SGNHAAGILT[Nle]-NH2), for which the EC50 in assay [1] (setting [3]) was under 0.1 nM; in assay [2] (setting [4]) it was over 10 nM.
The like results for `CCCCCC[C@H](NC(=O)[C@@H](NC(=O)[C@H](CC(C)C)NC(=O)[C@@H](NC(=O)CNC(=O)[C@@H](NC(=O)[C@H](C)NC(=O)[C@@H]1C[C@@H](O)CN1C(=O)[C@H](CC(N)=O)NC(=O)CN(CCc1ccccc1)C(=O)[C@H](CCCNC(=N)N)NC(=O)[C@@H]1C[C@@H](O)CN1C(=O)[C@@H]1C[C@@H](O)CN1C(=O)[C@@H]1C[C@@H](O)CN1)c1ccccc1)[C@@H](C)CC)[C@@H](C)O)C(N)=O` [compound 9] (H-[Hyp][Hyp][Hyp]R[Gly(NCH2CH2Ph)]N[Hyp]A[Phg]GILT[Aoc(2)]-NH2) were, in that order, under 0.1 nM and over 10 nM.
With `CCCC[C@H](NC(=O)[C@@H](NC(=O)[C@H](CC(C)C)NC(=O)[C@@H](NC(=O)CNC(=O)[C@H](C)NC(=O)[C@H](C)NC(=O)[C@H](Cc1c[nH]cn1)NC(=O)[C@H](CC(N)=O)NC(=O)CNC(=O)[C@H](CO)NC(=O)[C@@H](C)NC(=O)[C@@H](Cc1ccccc1)NC(=O)[C@H](CC(C)C)NC(=O)[C@@H](N)Cc1ccccc1)[C@@H](C)CC)[C@@H](C)O)C(N)=O` [compound 13] (H-FL[dF][dA]SGNHAAGILT[Nle]-NH2), the EC50 was under 0.1 nM in assay [1] (setting [3]) and over 10 nM in assay [2] (setting [4]).
The like results for `CCCC[C@H](NC(=O)[C@@H](NC(=O)[C@H](CC(C)C)NC(=O)[C@@H](NC(=O)CNC(=O)[C@@H](NC(=O)[C@H](C)NC(=O)[C@H](Cc1c[nH]cn1)NC(=O)[C@H](CC(N)=O)NC(=O)CNC(=O)[C@H](CO)NC(=O)[C@H](C)NC(=O)[C@H](Cc1c[nH]c2ccccc12)NC(=O)[C@@H](CC(C)C)NC(=O)[C@@H](N)Cc1ccccc1)c1ccccc1)[C@@H](C)CC)[C@@H](C)O)C(N)=O` [compound 10] (H-F[dL]WASGNHA[Phg]GILT[Nle]-NH2) were, in that order, under 0.1 nM and over 10 nM.
For `CCCC[C@H](NC(=O)[C@@H](NC(=O)[C@H](CC(C)C)NC(=O)[C@@H](NC(=O)CNC(=O)[C@H](C)NC(=O)[C@H](C)NC(=O)[C@H](Cc1c[nH]cn1)NC(=O)[C@H](CC(N)=O)NC(=O)CNC(=O)[C@H](CO)NC(=O)[C@@H](C)NC(=O)[C@@H](Cc1ccccc1)NC(=O)[C@@H](CC(C)C)NC(=O)[C@@H](N)CC(C)C)[C@@H](C)CC)[C@@H](C)O)C(N)=O` [compound 14] (H-L[dL][dF][dA]SGNHAAGILT[Nle]-NH2), in that order: under 0.1 nM and over 10 nM.
For the compound `CCCCCC[C@H](NC(=O)[C@@H](NC(=O)[C@H](CC(C)C)NC(=O)[C@@H](NC(=O)CNC(=O)[C@@H](NC(=O)[C@H](C)NC(=O)[C@@H]1C[C@@H](O)CN1C(=O)[C@H](CC(N)=O)N(C)C(=O)CN(CCc1ccccc1)C(=O)[C@H](CCCNC(=N)N)NC(=O)[C@H]1CCCN1C(=O)[C@H](CCCCNC(=N)N)NC(=O)[C@H](CCC(N)=O)NC(=O)C(C)(C)C(=O)NCCc1cnc[nH]1)c1ccccc1)[C@@H](C)CC)[C@@H](C)O)C(N)=O` [compound 6] ({Malonyl(2,2-Me2,histaminyl)}-Q[hArg][dP]R[Gly(NCH2CH2Ph)][NMeN][Hyp]A[Phg]GILT[Aoc(2)]-NH2), the pEC50 was over 10.00 in assay [1] and under 8.00 in assay [2].
As for `CCCC[C@H](NC(=O)[C@@H](NC(=O)[C@H](CC(C)C)NC(=O)[C@@H](NC(=O)CNC(=O)[C@@H](NC(=O)[C@H](C)NC(=O)[C@H](Cc1c[nH]cn1)NC(=O)[C@H](CC(N)=O)NC(=O)CNC(=O)[C@H](CO)NC(=O)[C@H](CCCNC(=N)N)NC(=O)[C@@H](N)Cc1c[nH]c2ccccc12)c1ccccc1)[C@@H](C)CC)[C@@H](C)O)C(N)=O` [SEQ ID NO:8, TRP-ARG-SER-GLY-ASN-HIS-ALA-Phg-GLY-ILE-LEU-THR-NLE-NH2] (H-WRSGNHA[Phg]GILT[Nle]-NH2), the EC50 in assay [1] (13 amino acid sequences, Example 4, read-out: OX2 pEC50 (converted)) is over 1.58 nM; in assay [2] (13 amino acid sequences, Example 4, read-out: OX1 pEC50 (converted)) it was over 316 nM.

Source of the values: patent US20250277001A1, “PEPTIDE DERIVATIVES AND RELATED USES AS OREXIN AGONISTS” (CENTESSA PHARMACEUTICALS (UK) LIMITED, priority 2022, published 2025).
